From ChEMBL document CHEMBL2074266, “Molecular cloning and characterization of multispecific organic anion transporter 4 expressed in the placenta” (J Biol Chem, 2000)

Columns and labels:
[1] = target: T1, Solute carrier family 22 member 11 (Homo sapiens, UniProt Q9NSA0); test: TP_TRANSPORTER: inhibition of E1S uptake (E1S: 0.05 uM, 4-methylumbelliferyl sulfate: 500 uM) in Xenopus laevis oocytes; assay type: functional, cell-based; settings: oocyte
T1 sequence (Q9NSA0 whole entry): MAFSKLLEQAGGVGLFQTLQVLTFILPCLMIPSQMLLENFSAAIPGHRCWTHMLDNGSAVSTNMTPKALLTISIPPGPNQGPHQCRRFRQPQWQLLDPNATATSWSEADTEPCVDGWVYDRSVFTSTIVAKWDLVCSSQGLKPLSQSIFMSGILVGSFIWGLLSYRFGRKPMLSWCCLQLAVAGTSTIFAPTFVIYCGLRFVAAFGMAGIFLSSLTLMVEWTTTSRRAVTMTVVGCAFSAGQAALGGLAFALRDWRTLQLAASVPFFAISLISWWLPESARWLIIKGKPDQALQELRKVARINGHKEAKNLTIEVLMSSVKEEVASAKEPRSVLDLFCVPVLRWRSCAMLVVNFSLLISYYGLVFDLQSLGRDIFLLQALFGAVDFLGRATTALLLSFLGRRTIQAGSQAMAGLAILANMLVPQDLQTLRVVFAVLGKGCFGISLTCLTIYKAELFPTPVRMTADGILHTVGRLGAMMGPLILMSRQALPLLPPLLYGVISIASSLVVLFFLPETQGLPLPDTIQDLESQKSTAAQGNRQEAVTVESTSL

[2] = target: T1, Solute carrier family 22 member 11; test: TP_TRANSPORTER: inhibition of E1S uptake (E1S: 0.05 uM, beta-estradiol sulfate: 500 uM) in Xenopus laevis oocytes; assay type: functional, cell-based; settings: oocyte
[3] = target: T1, Solute carrier family 22 member 11; test: TP_TRANSPORTER: inhibition of E1S uptake (E1S: 0.05 uM, Bumetanide: 500 uM) in Xenopus laevis oocytes; assay type: functional, cell-based; settings: oocyte
[4] = target: T1, Solute carrier family 22 member 11; test: TP_TRANSPORTER: inhibition of E1S uptake (E1S: 0.05 uM, beta-Estradiol: 500 uM) in Xenopus laevis oocytes; assay type: functional, cell-based; settings: oocyte
[5] = target: T1, Solute carrier family 22 member 11; test: TP_TRANSPORTER: inhibition of E1S uptake (E1S: 0.05 uM, Glutarate: 500 uM) in Xenopus laevis oocytes; assay type: functional, cell-based; settings: oocyte
[6] = target: T1, Solute carrier family 22 member 11; test: TP_TRANSPORTER: inhibition of E1S uptake (E1S: 0.05 uM, Estradiol-3-glucuronide: 500 uM) in Xenopus laevis oocytes; assay type: functional, cell-based; settings: oocyte
[7] = target: T1, Solute carrier family 22 member 11; test: TP_TRANSPORTER: inhibition of E1S uptake (E1S: 0.05 uM, Ibuprofen: 500 uM) in Xenopus laevis oocytes; assay type: functional, cell-based; settings: oocyte
[8] = target: T1, Solute carrier family 22 member 11; test: TP_TRANSPORTER: inhibition of E1S uptake (E1S: 0.05 uM, Corticosterone: 500 uM) in Xenopus laevis oocytes; assay type: functional, cell-based; settings: oocyte
[9] = target: T1, Solute carrier family 22 member 11; test: TP_TRANSPORTER: inhibition of E1S uptake (E1S: 0.05 uM, Acetaminophen glucuronide: 500 uM) in Xenopus laevis oocytes; assay type: functional, cell-based; settings: oocyte
[10] = target: T1, Solute carrier family 22 member 11; test: (§1) TP_TRANSPORTER: uptake in Xenopus laevis oocytes; assay type: functional, cell-based; settings: oocyte
[11] = target: T1, Solute carrier family 22 member 11; test: TP_TRANSPORTER: inhibition of E1S uptake (E1S: 0.05 uM, Indomethacin: 500 uM) in Xenopus laevis oocytes; assay type: functional, cell-based; settings: oocyte
[12] = target: T1, Solute carrier family 22 member 11; test: TP_TRANSPORTER: inhibition of E1S uptake (E1S: 0.05 uM, DHEAS: 500 uM) in Xenopus laevis oocytes; assay type: functional, cell-based; settings: oocyte
[13] = target: T1, Solute carrier family 22 member 11; test: TP_TRANSPORTER: inhibition of E1S uptake (E1S: 0.05 uM, alpha-naphthyl beta-D-glucuronide: 500 uM) in Xenopus laevis oocytes; assay type: functional, cell-based; settings: oocyte
[14] = target: T1, Solute carrier family 22 member 11; test: TP_TRANSPORTER: inhibition of E1S uptake (E1S: 0.05 uM, 4-methylumbeliferone glucuronide: 500 uM) in Xenopus laevis oocytes; assay type: functional, cell-based; settings: oocyte
[15] = target: T1, Solute carrier family 22 member 11; test: TP_TRANSPORTER: inhibition of E1S uptake (E1S: 0.05 uM, Diclofenac: 500 uM) in Xenopus laevis oocytes; assay type: functional, cell-based; settings: oocyte
[16] = target: T1, Solute carrier family 22 member 11; test: TP_TRANSPORTER: inhibition of E1S uptake (E1S: 0.05 uM, p-Nitrophenyl glucuronide: 500 uM) in Xenopus laevis oocytes; assay type: functional, cell-based; settings: oocyte
[17] = target: T1, Solute carrier family 22 member 11; test: TP_TRANSPORTER: inhibition of E1S uptake (E1S: 0.05 uM, BSP: 100 uM) in Xenopus laevis oocytes; assay type: functional, cell-based; settings: oocyte
[18] = target: T1, Solute carrier family 22 member 11; test: TP_TRANSPORTER: inhibition of E1S uptake (E1S: 0.05 uM, Furosemide: 500 uM) in Xenopus laevis oocytes; assay type: functional, cell-based; settings: oocyte
[19] = substrate: C[C@]12CC[C@@H]3c4ccc(OS(=O)(=O)O)cc4CC[C@H]3[C@@H]1CCC2=O; test: as §1; assay type: functional, cell-based, Oocyte
[20] = substrate: [H][C@@]12CC=C3C[C@@H](OS(=O)(=O)O)CC[C@]3(C)[C@@]1([H])CC[C@]1(C)C(=O)CC[C@@]21[H]; test: as §1; assay type: functional, cell-based, Oocyte

Molecule: Cc1cc(=O)oc2cc(OS(=O)(=O)O)ccc12
- Activity [1]: inhibitor [(at a rough estimate) 40 % of control]

Molecule: C[C@]12CC[C@@H]3c4ccc(OS(=O)(=O)O)cc4CC[C@H]3[C@@H]1CC[C@@H]2O
- Activity [2]: inhibitor [(at a rough estimate) 25 % of control]

Molecule: CCCCNc1cc(C(=O)O)cc(S(N)(=O)=O)c1Oc1ccccc1 [BUMETANIDE]
- Activity [3]: inhibitor [(at a rough estimate) 15 % of control]

Molecule: C[C@]12CC[C@@H]3c4ccc(O)cc4CC[C@H]3[C@@H]1CC[C@@H]2O [ESTRADIOL]
- Activity [4]: is not an inhibitor [-]

Molecule: O=C(O)CCCC(=O)O [GLUTARATE]
- Activity [5]: is not an inhibitor [-]

Molecule: C[C@]12CC[C@@H]3c4ccc(O[C@@H]5O[C@H](C(=O)O)[C@@H](O)[C@H](O)[C@H]5O)cc4CC[C@H]3[C@@H]1CC[C@@H]2O
- Activity [6]: is not an inhibitor [-]

Molecule: CC(C)Cc1ccc(C(C)C(=O)O)cc1 (stereo unspecified) [IBUPROFEN]
- Activity [7]: inhibitor [(at a rough estimate) 10 % of control]

Molecule: C[C@]12C[C@H](O)[C@H]3[C@@H](CCC4=CC(=O)CC[C@@]43C)[C@@H]1CC[C@@H]2C(=O)CO [CORTICOSTERONE]
- Activity [8]: inhibitor [(at a rough estimate) 30 % of control]

Molecule: CC(=O)Nc1ccc(O[C@@H]2O[C@H](C(=O)O)[C@@H](O)[C@H](O)[C@H]2O)cc1 [ACETAMINOPHEN GLUCURONIDE]
- Activity [9]: is not an inhibitor [-]

Molecule: C[C@@H]1Cc2c(Cl)cc(C(=O)N[C@@H](Cc3ccccc3)C(=O)O)c(O)c2C(=O)O1 [3R14S-OCHRATOXIN A]
- Activity [10]: substrate [+]

Molecule: COc1ccc2c(c1)c(CC(=O)O)c(C)n2C(=O)c1ccc(Cl)cc1 [INDOMETHACIN]
- Activity [11]: inhibitor [(at a rough estimate) 5 % of control]

Molecule: C[C@]12CC[C@H](OS(=O)(=O)O)CC1=CC[C@@H]1[C@@H]2CC[C@]2(C)C(=O)CC[C@@H]12 [PRASTERONE SULFURIC ACID]
- Activity [12]: inhibitor [(at a rough estimate) 15 % of control]

Molecule: O=C(O)[C@H]1O[C@@H](Oc2cccc3ccccc23)[C@H](O)[C@@H](O)[C@@H]1O
- Activity [13]: is not an inhibitor [-]

Molecule: O=C(O)[C@H]1O[C@@H](OCc2cc(=O)oc3cc(O)ccc23)[C@H](O)[C@@H](O)[C@@H]1O
- Activity [14]: is not an inhibitor [-]

Molecule: Nc1ccc(C(=O)NCC(=O)O)cc1 [AMINOHIPPURIC ACID]
- Activity [10]: substrate [+]

Molecule: O=C(O)Cc1ccccc1Nc1c(Cl)cccc1Cl [DICLOFENAC]
- Activity [15]: inhibitor [(at a rough estimate) 5 % of control]

Molecule: O=C(O)[C@H]1O[C@@H](Oc2ccc([N+](=O)[O-])cc2)[C@H](O)[C@@H](O)[C@@H]1O
- Activity [16]: is not an inhibitor [-]

Molecule: O=C1OC(c2ccc(O)c(S(=O)(=O)[O-])c2)(c2ccc(O)c(S(=O)(=O)[O-])c2)c2c(Br)c(Br)c(Br)c(Br)c21.[Na+].[Na+] [SULFOBROMOPHTHALEIN SODIUM]
- Activity [17]: inhibitor [(at a rough estimate) <5 % of control]

Molecule: NS(=O)(=O)c1cc(C(=O)O)c(NCc2ccco2)cc1Cl [FUROSEMIDE]
- Activity [18]: inhibitor [(at a rough estimate) 5 % of control]

B1: Solute carrier family 22 member 11 (Homo sapiens) (protein)
chain: T1 sequence (Q9NSA0 whole entry)
- Km [19]: 1.01 µM
- Km [20]: 0.63 µM
